In patent US20110195924A1, “Methods of Inhibiting the Interaction Between S100P and the Receptor for Advanced Glycation End-Products” (priority 2008, published 2011):
Where “and” joins values, the source holds several entries; their conditions need not be identical. Equal entries are not always repeated.

Tests used:
BxPC-3 tumors = test: BxPC-3 orthotopic tumor growth and metastasis in scid mice; type: in vivo; details: BxPC-3 model; for lung metastasis, mean: control 5.5×10^8; for tumor burden, difference versus control / tumor burden, mean: end of six weeks; for tumor burden, mean: gemcitabine 125 mg/kg bi-weekly i.p., cromolyn 5 mg/kg daily i.p., control 1.6×10^9
Protocol: FIGS. 4A-4F show the effect of cromolyn on BxPC-3 tumor growth and metastasis in vivo. BxPC-3 cells stably expressing the firefly luciferase gene were injected orthotopically into 4 week old male CB 17 scid mice. […] Mice were divided into four groups of five mice each with an equivalent mean tumor size between groups. […] One group was treated with water (control), one group received gemcitabine bi-weekly (125 mg kg body weight bi-weekly by intraperitoneal injection), one group was administered cromolyn daily (5 mg per kg body weight daily by intraperitoneal injection), and the final group was given the combination of daily cromolyn and bi-weekly gemcitabine. All groups were treated for six weeks. Bioluminescent imaging was done weekly to assess tumor growth. […] Means and 95% confidence intervals are shown. (n=20). Two-tailed two-sample (unpaired) Student's t-tests were used to determine P values. The anti-tumorigenic capability of the drug cromolyn was assessed in 4-week-old male CB 17 scid mice (n=20) carrying orthopic tumors of BxPC-3, MPanc96, and Panc-1 cells stably expressing a Lenti-luc reporter. All mouse experiments were reviewed and approved by the Institutional Animal Care and Use Committee of UT MD Anderson Cancer Center. All mice were maintained in a sterile environment. Cages, bedding, food, and water were all autoclaved. All mice were maintained on a daily 12-hour light/12-hour dark cycle, according to the institutional animal welfare guidelines. BxPC-3, MPanc96, and Pane-1 cells carrying the Lenti-luc reporter gene were grown to 80% confluence, harvested by incubation with trypsin-EDTA, washed twice in PBS, and resuspended to a final concentration of 4.0×10^6 cells/mL. Each mouse (n=20 mice per cell line) was injected (into the pancreas) with cell suspensions (50 μL). Bioluminescent imaging to determine tumor volume was performed 1 week after injection because the tumors became established within this amount of time. This initial tumor volume was used to divide the mice into four groups of five mice each, such that the mean tumor size was equal between groups (FIGS. 4A, 5A, and 6A). To allow enough time to observe differences among treatment groups, the mice were followed for the next 5 weeks. One group of mice was then treated biweekly with a sub-maximal concentration of gemcitabine (125 mg per kg body weight by i.p. injection). A second group was treated with a daily injection of cromolyn (5 mg per kg body weight by i.p. injection). A third group was treated with both bi-weekly gemcitabine and daily cromolyn. The control group was treated daily with vehicle. Treatments were continued for 5 weeks, and the effects on the tumor burden and metastasis were analyzed by weekly bioluminescence imaging (FIGS. 4B, 5B, and 6B). At the end of the experiment the mice were anesthetized with 1.5% isofluorane/air mixture and killed by cervical dislocation. Bioluminescence imaging was conducted using a cryogenically cooled IVIS 100 imaging system coupled to a data acquisition computer running Living Image software (Xenogen Corp., Alameda, Calif.). Before imaging, mice were placed in an acrylic chamber, anesthetized with 1.5% isofluorane/air mixture, and injected i.p. with 15 mg/mL of luciferin potassium salt in PBS at a dose of 150 mg per kg body weight. A digital grey scale image of each mouse was acquired, followed by acquisition and overlay of a pseudocolor image representing the spatial distribution of detected photons emerging from active luciferase within the mouse. Tumor volume was quantified as the sum of all detected photons within the region of the tumor per second. At the end of experiment, the mice were killed, and tumors were surgically removed and weighed. After the primary tumors were removed, cancer cell dissemination and metastasis was visualized using IVIS imaging, and metastatic colonies were counted. Subsequently, tissues were fixed with formaldehyde, and histology was used to verify the accuracy of the bioluminescence data. […]

BxPC-3 cells = test: BxPC-3 apoptosis by flow cytometry (PI staining); type: cell-based; details: 48 hours
Protocol: BxPC-3 cells were treated with cromolyn (10 μM) with (+) or without (−) gemcitabine (10 μM), and apoptosis was analyzed after 48 hours by flow cytometry. *, P<0.001 versus control, #, P=0.001 versus gemcitabine. Means and 95% confidence intervals of three independent experiments performed in triplicate are shown. Two-tailed two-sample (unpaired) Student's t-tests were used to determine P values. Standard propidium iodide (PI) staining by the hypotonic lysis method was used for apoptosis studies. Apoptosis was induced in 1.0×10^6 BxPC-3 cells by treatment with gemcitabine (10 μM), with or without cromolyn. After 48 hours the cells were detached from culture dishes by incubation in 0.05% trypsin-EDTA, washed once with cold PBS, and then incubated for 30 minutes in 500 μL of hypotonic solution (0.1% sodium citrate, 0.1% Triton X-100, 100 μg/mL RNAse, and 50 μg/mL PI), and analyzed by flow cytometry (EPICS XL, Beckman Coulter Inc, Fullerton, Calif.). Cells undergoing apoptosis that had lost part of their DNA were identified as the population of cells with sub-G1 DNA content. These assays were performed three times.

SMILES	liver metastasis (in words) (BxPC-3 tumors)	lung metastasis, difference versus control (BxPC-3 tumors)	lung metastasis, mean (BxPC-3 tumors)	tumor burden, difference versus control (BxPC-3 tumors)	tumor burden, mean (BxPC-3 tumors)	effect on body weight (in words) (BxPC-3 tumors; up to 6 weeks)	cell apoptosis, cromolyn alone (BxPC-3 cells; cromolyn 10 μM)	body weight, difference versus control (BxPC-3 tumors) [g]	body weight at the end of the experiment, mean (BxPC-3 tumors; control 31.1) [g]	metastasis in lung or liver compared with control mice (BxPC-3 tumors; treatment alone)	apoptotic cells, difference versus control (BxPC-3 cells; gemcitabine 10 μM) [%]	apoptotic cells, mean (BxPC-3 cells; gemcitabine 10 μM, control 3.7%)
O=C(O)c1cc(=O)c2c(OCC(O)COc3cccc4oc(C(=O)O)cc(=O)c34)cccc2o1 [cromolyn, disodium 1,3-bis[(2′-carboxylatochromon-5′-yl)oxy]-2-hydroxypropane]	but not liver metastasis	3.9×10^8 photons/sec	1.6×10^8 photons/sec	1.2×10^9 photons/sec	4.4×10^8 photons/sec	no effect	no statistically significant effect					
Nc1ccn([C@@H]2O[C@H](CO)[C@@H](O)C2(F)F)c(=O)n1 [gemcitabine]			3.9×10^8 photons/sec	6.8×10^8 photons/sec	9.2×10^8 photons/sec			3.9	27.2	did not reduce	27.3	31.0% and 30.8%
